Values quoted from earlier work, collected in patent US20240197589A1, “ORAL CARE COMPOSITIONS COMPRISING GERANYLGERANIOL AND METHODS OF USE THEREOF” (AMERICAN RIVER NUTRITION, LLC, priority 2022, published 2024).

Assays:
Staphylococcus aureus = details: S. aureus
[1] = animals treated with both bisphosphonates and GG
[2] = test system: Mycobacterium tuberculosis; details: M. tuberculosis, at 6.25 ug/ml
[3] = in combination with amoxicillin, 200 mg two times per day for 5 days, following third molar removal

Molecule: CC(C)=CCC/C(C)=C/CC/C(C)=C/CC/C(C)=C/CO [GG, geranylgeraniol]
- concentration for optimum bactericidal effect (Staphylococcus aureus): 0.15 to 1.25 µg/mL
- decrease of viable bacterial cell count (Staphylococcus aureus; 0.15-1.25 ug/ml, within two hours): decreased viable bacterial cell count by a factor of two
- improved gum and extracted socket healing [1]: 45-67%
- inhibition of the bacterium [2]: 96%

Molecule: Bromelain
- dilution effective against Streptococcus mutans (Streptococcus mutans): 2 mg/mL
- dilution exerting antibacterial effects against Porphyromonas gingivalis (Porphyromonas gingivalis): 4.15 mg/mL
- study subjects with reduced swelling and pain [3]: up to 70%
